In PubChem BioAssay AID248 (DTP/NCI, 2004):
Several values for one entry are separate records, joined by “and”; a condition that tells them apart may be missing. Equal values may be shown once. Toxic doses and inconclusive results are not listed. Cut-off read from the data, not from the text of the source: active = T/C of 150% or more; inactive = T/C below 125%.

System: L1210 leukemia ip in BDF1 mice, survival T/C
Experiment: NCI In Vivo Anticancer Drug Screen. Data for tumor model L1210 Leukemia (intraperitoneal) in B6D2F1 (BDF1) mice
Conditions: endpoint: mean survival time, higher = longer survival
Summary of the method: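 Ratio derived from survival: compound-dosed mice over vehicle-dosed mice, all bearing a transplantable tumor.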

[1] = dose: 100.0 mg/kg/injection, schedule: Q04DX003 (ip), vehicle: Klucel (hydroxypropylcellulose) (HPC)
[2] = dose: 200.0 mg/kg/injection, schedule: Q04DX003 (ip), vehicle: Klucel (hydroxypropylcellulose) (HPC)
[3] = dose: 400.0 mg/kg/injection, schedule: Q04DX003 (ip), vehicle: Klucel (hydroxypropylcellulose) (HPC)
[4] = dose: 25.0 mg/kg/injection, schedule: Q01DX009 (ip), vehicle: saline
[5] = dose: 25.0 mg/kg/injection, schedule: Q04DX003 (ip), vehicle: saline
[6] = dose: 50.0 mg/kg/injection, schedule: Q01DX009 (ip), vehicle: saline
[7] = dose: 50.0 mg/kg/injection, schedule: Q04DX003 (ip), vehicle: saline
[8] = dose: 100.0 mg/kg/injection, schedule: Q01DX001 (ip), vehicle: saline
[9] = dose: 100.0 mg/kg/injection, schedule: Q04DX003 (ip), vehicle: saline
[10] = dose: 100.0 mg/kg/injection, schedule: Q01DX009 (ip), vehicle: saline
[11] = dose: 200.0 mg/kg/injection, schedule: Q01DX009 (ip), vehicle: saline
[12] = dose: 200.0 mg/kg/injection, schedule: Q04DX003 (ip), vehicle: saline
[13] = dose: 400.0 mg/kg/injection, schedule: Q04DX003 (ip), vehicle: saline
[14] = dose: 100.0 mg/kg/injection, schedule: Q01DX001 (ip), vehicle: other
[15] = dose: 200.0 mg/kg/injection, schedule: Q01DX001 (ip), vehicle: other
[16] = dose: 400.0 mg/kg/injection, schedule: Q01DX001 (ip), vehicle: other
[17] = dose: 200.0 mg/kg/injection, schedule: Q01DX001 (ip), vehicle: saline
[18] = dose: 400.0 mg/kg/injection, schedule: Q01DX001 (ip), vehicle: saline

Measured: T/C

Cc1cc(O)c(C(C)C)cc1NC(=O)C(Cl)Cl
inactive: [1] 98 % of control | [2] 101 % of control | [3] 107 % of control

CC1=NN(P(=O)(c2ccccc2)c2ccccc2)/C(=C\c2ccccc2)O1
inactive: dose: 100.0 mg/kg/injection, schedule: Q01DX001 (ip), vehicle: steriod suspending solution 90 % of control | dose: 200.0 mg/kg/injection, schedule: Q01DX001 (ip), vehicle: steriod suspending solution 104 % of control | dose: 400.0 mg/kg/injection, schedule: Q01DX001 (ip), vehicle: steriod suspending solution 90 % of control

C#CC[N+](CC)(CC)CC
inactive: dose: 25.0 mg/kg/injection, schedule: Q01DX001 (ip), vehicle: saline 100 % of control | [4] 106 % of control and 89 % of control | dose: 25.0 mg/kg/injection, schedule: Q04DX002 (ip), vehicle: saline 95 % of control and 97 % of control | [5] 99 % of control | dose: 50.0 mg/kg/injection, schedule: Q01DX001 (ip), vehicle: saline 100 % of control | [6] 98 % of control and 106 % of control | dose: 50.0 mg/kg/injection, schedule: Q04DX002 (ip), vehicle: saline 107 % of control and 122 % of control | [7] 102 % of control | [8] 105 % of control and 110 % of control | [9] 103 % of control

O/C(=C/C(=S)S)c1ccco1
inactive: dose: 25.0 mg/kg/injection, schedule: Q01DX009 (ip), vehicle: water 87 % of control | dose: 50.0 mg/kg/injection, schedule: Q01DX009 (ip), vehicle: water 93 % of control | dose: 100.0 mg/kg/injection, schedule: Q01DX009 (ip), vehicle: water 88 % of control | dose: 200.0 mg/kg/injection, schedule: Q01DX009 (ip), vehicle: water 90 % of control | dose: 400.0 mg/kg/injection, schedule: Q01DX009 (ip), vehicle: water 93 % of control

O=C(NO)C(=O)NO
inactive: [6] 98 % of control | [10] 113 % of control | dose: 100.0 mg/kg/injection, schedule: Q04DX002 (ip), vehicle: saline with Tween-80 90 % of control | [11] 117 % of control | dose: 200.0 mg/kg/injection, schedule: Q04DX002 (ip), vehicle: saline with Tween-80 107 % of control | dose: 400.0 mg/kg/injection, schedule: Q04DX002 (ip), vehicle: saline with Tween-80 110 % of control

CCOC(=O)CC#N
inactive: [9] 103 % of control | [12] 103 % of control | [13] 102 % of control

c1ccc(C(=C2CC34CCCC23CC4)c2ccccc2)cc1 (stereo unspecified)
inactive: dose: 37.5 mg/kg/injection, schedule: Q04DX002 (ip), vehicle: saline with Tween-80 95 % of control | dose: 75.0 mg/kg/injection, schedule: Q04DX002 (ip), vehicle: saline with Tween-80 98 % of control | dose: 150.0 mg/kg/injection, schedule: Q04DX002 (ip), vehicle: saline with Tween-80 91 % of control | dose: 300.0 mg/kg/injection, schedule: Q04DX002 (ip), vehicle: saline with Tween-80 91 % of control

CCOC(=O)n1cnc2c(Cl)ncnc21
inactive: [14] 109 % of control | [15] 102 % of control | [16] 110 % of control

CC(C)(C)c1ccc(SCN(CSc2ccc(C(C)(C)C)cc2)Cc2ccccc2)cc1
inactive: [14] 105 % of control | [15] 100 % of control | [16] 94 % of control

Cc1cc(C)c(B(O)O)c(C)c1
inactive: [10] 100 % of control | [9] 105 % of control | [11] 96 % of control | [12] 100 % of control | dose: 400.0 mg/kg/injection, schedule: Q01DX009 (ip), vehicle: saline 103 % of control | [13] 102 % of control

COC1CN(C(C)(C)C)C1
inactive: [9] 103 % of control

CCOC(=O)NC(NC(=O)OCC)C(Cl)Cl
inactive: [8] 101 % of control | [17] 103 % of control | [18] 103 % of control

C=C/C=N/Nc1ccc([N+](=O)[O-])cc1
inactive: dose: 100.0 mg/kg/injection, schedule: Q04DX002 (ip), vehicle: Klucel (hydroxypropylcellulose) (HPC) 98 % of control | dose: 200.0 mg/kg/injection, schedule: Q04DX002 (ip), vehicle: Klucel (hydroxypropylcellulose) (HPC) 92 % of control | dose: 400.0 mg/kg/injection, schedule: Q04DX002 (ip), vehicle: Klucel (hydroxypropylcellulose) (HPC) 95 % of control

Nc1cc(N)nc(C(F)(F)F)n1
inactive: dose: 50.0 mg/kg/injection, schedule: Q01DX Z (ip), vehicle: methylcellulose (MC) 102 % of control | dose: 100.0 mg/kg/injection, schedule: Q01DX Z (ip), vehicle: methylcellulose (MC) 94 % of control

C[N+]1(C)C2CSCC1CC(O)C2 (stereo unspecified)
inactive: dose: 12.5 mg/kg/injection, schedule: Q01DX009 (ip), vehicle: saline 105 % of control | dose: 12.5 mg/kg/injection, schedule: Q04DX003 (ip), vehicle: saline 104 % of control | [4] 117 % of control | [5] 98 % of control | [6] 106 % of control | [7] 102 % of control | [9] 101 % of control

CC(=O)CCCC(C)C1CCC2C3CC=C4CC(O)CCC4(C)C3CCC12C (stereo unspecified)
inactive: dose: 75.0 mg/kg/injection, schedule: Q01DX009 (sc), vehicle: steriod suspending solution 99 % of control | dose: 100.0 mg/kg/injection, schedule: Q01DX001 (sc), vehicle: steriod suspending solution 105 % of control | dose: 150.0 mg/kg/injection, schedule: Q01DX009 (sc), vehicle: steriod suspending solution 94 % of control | dose: 200.0 mg/kg/injection, schedule: Q01DX001 (sc), vehicle: steriod suspending solution 101 % of control | dose: 300.0 mg/kg/injection, schedule: Q01DX009 (sc), vehicle: steriod suspending solution 92 % of control | dose: 400.0 mg/kg/injection, schedule: Q01DX001 (sc), vehicle: steriod suspending solution 101 % of control

COC(=O)C(NC(C)=O)C(=O)OC
inactive: dose: 100.0 mg/kg/injection, schedule: Q01DX009 (ip), vehicle: Klucel (hydroxypropylcellulose) (HPC) 98 % of control | [1] 90 % of control | dose: 200.0 mg/kg/injection, schedule: Q01DX009 (ip), vehicle: Klucel (hydroxypropylcellulose) (HPC) 104 % of control | [2] 98 % of control | dose: 400.0 mg/kg/injection, schedule: Q01DX009 (ip), vehicle: Klucel (hydroxypropylcellulose) (HPC) 96 % of control | [3] 106 % of control

CC(C)C/C=C/C1CCCCC1 (tested in a mixture with another compound)
inactive: dose: 50.0 mg/kg/injection, schedule: Q01DX009 (ip), vehicle: saline with Tween-80 101 % of control | dose: 100.0 mg/kg/injection, schedule: Q01DX009 (ip), vehicle: saline with Tween-80 93 % of control | dose: 200.0 mg/kg/injection, schedule: Q01DX009 (ip), vehicle: saline with Tween-80 97 % of control

CCCCCC(C)(O)CC (stereo unspecified)
inactive: [8] 93 % of control | [17] 102 % of control | [18] 96 % of control

CCNc1nc(C(F)(F)F)nc2[nH]ncc12
inactive: dose: 100.0 mg/kg/injection, schedule: Q01DX001 (ip), vehicle: acetone 101 % of control | [9] 101 % of control | dose: 200.0 mg/kg/injection, schedule: Q01DX001 (ip), vehicle: acetone 90 % of control | [12] 95 % of control | dose: 400.0 mg/kg/injection, schedule: Q01DX001 (ip), vehicle: acetone 90 % of control | [13] 97 % of control
